Source: US20120316247A1, “PREVENTION AND TREATMENT OF POST-OPERATIVE COGNITIVE DYSFUNCTION (POCD)” (priority 2009, published 2012)
Several values for one entry are separate records, joined by “and”; a condition that tells them apart may be missing. Identical values can stand only once. Like-named read-outs stand apart in the source and are kept apart here.

Tests used:
[1] = test system: Aβ40 and Aβ42 oligomerization
Experimental: (§1) To this end, H4 human neuroglioma cells stably transfected to express human full-length wild-type APP (H4-APP cells) in cell culture media with […] Aβ40, Aβ42 or Aβ40 plus Aβ42, were treated with an clinically relevant concentration of propofol (e.g., 100 μM) for one hour, and then with 2% isoflurane (plus 21% O2 and 5% CO2) for six hours. Wild-type H4 human neuroglioma cells (H4 naïve cells) and primary neurons from naïve (C57BL/6) mice were also used in the study for comparison. To obtain primary neurons, naïve (C57BL/6) mice with gestation stage of day 15 were euthanized with CO2. The primary neurons were harvested from the embyros. The harvested neurons were cultured for 7 to 10 days prior to treatment.
(§2) Anesthesia machine was used for the delivery of 2% isoflurane to the cells or neurons plated in a six well plate in a sealed plastic box located in a 37° C. incubator and Datex infrared gas analyzer was used for the monitoring (FIGS. 9A to 9C). The cells and the cell culture media were harvested at the end of the treatment. Caspase-3 activation and Aβ oligomerization were measured with quantitative Western blotting. Chemiluminescence signal from the western blot membranes was captured using a VersaDoc Imaging System and images were analyzed using Quantity One software (BioRad Hercules, Calif.).
In addition to the propofol effects on caspase-3 activation, its effects on Aβ oligomerization were assessed. H4-APP cell culture media were exposed to 2% isoflurane with and without 100 μM propofol for six hours. Antibody mAb 6E10 (1:3,000, Sigma) was used to detect Aβ40 and Aβ42 oligomerization.

[2] = test system: primary neurons from naïve (C57BL/6) mice; details: propofol before 2% isoflurane, gestation day 15, FIG. 12
Experimental: as §1, §2
(§3) Apoptosis is a programmed cell death requiring cysteine proteases called caspases, and caspase-3 activation is one of the final steps of apoptosis. Thus, a caspase-3 antibody (Cell Signaling, Danvers, Mass.) was used to recognize full-length (35 kDa), and the large fragment of cleaved caspase-3 (17-20 kDa).

H4-APP cells = test system: H4-APP cells
Experimental: as §1, §2, §3

H4 naïve cells = details: propofol before 2% isoflurane, FIG. 11
Experimental: as §1, §2, §3

Aβ = details: 2-APB (10 mg/kg, FIG. 7D) before 3% sevoflurane for 6 h; neonatal naïve mice; sevoflurane alone 304%; P=0.042
Text: (§4) The animal protocol was approved by the Standing Committee on Animals at Massachusetts General Hospital (Boston, Mass.). Naive mice (C57BL/6J mice [The JacksonLaboratory, Bar Harbor, Me.]) and Alzheimer's disease (AD) transgenic mice (B6.Cg-Tg[APPswe, PSEN1dE9]85 Dbo/J, [The Jackson Laboratory]) were distinguished by genotyping. All animals (3-12 mice per experiment) were 6 days old at the time of anesthesia and were randomized by weight and gender into experimental groups that received either 3 or 2.1% sevoflurane plus 60% oxygen for either 6 or 2 h, and control groups received 60% oxygen for 6 or 2 h at identical flow rates in identical anesthetizing chambers. […] Anesthetic and oxygen concentrations were measured continuously (Datex, Tewksbury, Mass.), and the temperature of the anesthetizing chamber was controlled to maintain the rectal temperature of the mice at 37°±0.5° C. In the interaction studies, the inositol trisphosphate receptor (IP3R) antagonist 2-aminoethoxydiphenyl borate (2-APB) (5 and 10 mg/kg) was administered to the mice via intraperitoneal injection 10 min before the anesthetic was administered. 2-APB was first dissolved in dimethyl sulfoxide to 20 μg/μl and then diluted with saline to 0.25 μg/μl (1:80 dilution) and to 0.5 μg/μl (1:40 dilution).
(§5) Data were expressed as mean±SD.

caspase-3 = details: for sevoflurane-induced caspase-3 activation, percentage of control (100%): sevoflurane alone 356%; for caspase-3 activation, fold of control (1-fold): 3% sevoflurane for 6 h, FIG. 4B
Text: as §4
(§6) Immediately after sevoflurane anesthesia, the mouse was decapitated, and the brain cortex was harvested. The brain tissues were homogenized in an immunoprecipitation buffer (10 mM Tris-HCl, pH 7.4, 150 mM NaCl, 2 mM ethylenediaminetetraacetic acid, and 0.5% Nonidet P-40) plus protease inhibitors ([1 μg/ml aprotinin, 1 μg/ml leupeptin, and 1 μg/ml pepstatin A]; [Roche, Indianapolis, Ind.]). The lysates were collected, centrifuged at 13,000 rpm for 15 min, and quantified for total proteins by using the bicinchoninic acid protein assay kit (Pierce, Iselin, N.J.).
(§7) The harvested brain tissues were subjected to Western blots as described by Xie et al. (16). Briefly, 60 μg of each lysate was separated on sodium dodecyl sulfate polyacrylamide gel electrophoresis gels and transferred to polyvinylidene difluoride blots (Bio-Rad, Hercules, Calif.) using a semidry electrotransfer system (Amersham Biosciences, San Francisco, Calif.). The blot was incubated overnight at 4° C. with primary antibodies, followed by washes and incubation with appropriate secondary antibodies, and visualized with a chemoluminescence system. A caspase-3 antibody (1:1,000 dilution; Cell Signaling Technology, Danvers, Mass.) was used to recognize the caspase-3 fragment (17-20 kDa) resulting from cleavage at aspartate position 175 and fulllength (FL) caspase-3 (35-40 kDa). TNF-α levels were recognized by antibody ab6671 (26 kDa; 1:1,000; Abcam, Cambridge, Mass.). The antibody to nontargeted protein β-actin was used to control for loading differences in total protein amounts. The figures showing blots with only the caspase-3 fragment are the same Western blots with extended exposure time during the development of the film. The signal of the Western blot band was detected using Molecular Imager VersaDoc MP 5000 System (Bio-Rad). The intensity of signals was analyzed using a Bio-Rad image program (Quantity One) and a National Institutes of Health Image Version 1.37 (National Institutes of Health, Bethesda, Md.). Western blots were quantified using two steps. First, levels of β-actin was used to normalize (e.g., determining the ratio of FL caspase-3 amount to β-actin amount) the levels of proteins to control for loading differences in total protein amounts.

[3] = test system: apoptosis in the developing rat brain; details: intraventricular injection, Wei and Xie, 6 Curr. Alzheimer Res. 30 (2009); cited from earlier work
[4] = test system: amyloid precursor protein (APP); details: mouse, in vivo
Text: as §4, §6, §7

[5] = Mortality of neonatal mice after sevoflurane anesthesia; type: in vivo; details: 6-day-old mice
Experimental: Naive mice (C57BL/6J mice [The JacksonLaboratory, Bar Harbor, Me.]) and Alzheimer's disease (AD) transgenic mice (B6.Cg-Tg[APPswe, PSEN1dE9]85 Dbo/J, [The Jackson Laboratory]) were distinguished by genotyping. All animals (3-12 mice per experiment) were 6 days old at the time of anesthesia and were randomized by weight and gender into experimental groups that received either 3 or 2.1% sevoflurane plus 60% oxygen for either 6 or 2 h, and control groups received 60% oxygen for 6 or 2 h at identical flow rates in identical anesthetizing chambers. […] The high concentration of sevoflurane anesthesia was used to illustrate the difference of sevoflurane-induced neurotoxicity between neonatal naïve and AD transgenic mice. […] Anesthetic and oxygen concentrations were measured continuously (Datex, Tewksbury, Mass.), and the temperature of the anesthetizing chamber was controlled to maintain the rectal temperature of the mice at 37°±0.5° C.

[6] = test system: TUNEL-positive cells (apoptosis) in the brain tissues; experiment: TUNEL staining of brain sections of neonatal mice; type: in vivo; details: 3% sevoflurane plus 60% oxygen for 6 h, FIG. 5B
Experimental: Terminal Deoxynucleotidyl Transferase dUTP Nick End Labeling Staining Assay. […] The mouse brain tissues were removed and exposed to immersion fixation for 24 h at 4° C. in 4% paraformaldehyde, and then 5-μm paraffin-embedded sections were made from the brain tissues. TMRred kit (Roche, Palo Alto, Calif.) was used for terminal deoxynucleotidyl transferase dUTP nick end labeling (TUNEL) staining. Briefly, the brain sections were incubated in a permeabilization solution and then incubated with a TUNEL reaction mixture. Finally, the sections were incubated with 10 μg/ml Hoechst 33342 in a humidified dark chamber. The sections from the same brain areas between control group mice and the sevoflurane-treated mice were then analyzed in a mounting medium under a fluorescence microscope. The TUNEL-positive cells and total cells in five areas of the brain section from each of the mice in the experiments were counted blind-fold under a 20× objective microscope lens. For the double immunocytochemistry staining to identify the cell type of the TUNEL-positive cells, the mouse brain tissues were quickly removed after sevoflurane anesthesia, put into a container with dry ice and ethanol, and then kept in a −80° C. freezer. Five-micrometer frozen sections were cut using a cryostat. […] Finally, the sections were mounted and immediately viewed using a fluorescence microscope.
as §5

Compound: CC(C)c1cccc(C(C)C)c1O [propofol, 2,6-diisopropylphenol]
- effect on isoflurane-induced Aβ40 (oligomerization) ([1]; 100 μM propofol for one hour prior to 2% isoflurane, H4-APP cells, FIG. 14B): attenuated
- effect on isoflurane-induced Aβ42 (oligomerization) ([1]; 100 μM propofol for one hour prior to 2% isoflurane, H4-APP cells, FIG. 14C): attenuated
- Aβ oligomerization by propofol alone ([1]; propofol alone, no isoflurane): did not induce
- effect on isoflurane-induced caspase-3 activation [2]: did not attenuate
- effect on isoflurane-induced caspase-3 activation (H4-APP cells; 100 μM propofol for one hour prior to 2% isoflurane for six hours, H4-APP cells, FIG. 10): attenuated isoflurane-induced caspase-3 activation
- caspase-3 activation by propofol alone (H4-APP cells; propofol alone, no isoflurane): did not induce
- effect on isoflurane-induced caspase-3 activation (H4 naïve cells): did not attenuate

Compound: NCCOB(c1ccccc1)c1ccccc1 [2-APB, 2-aminoethoxydiphenyl borate]
- sevoflurane-induced increase in Aβ levels, percentage of control (Aβ): 157%
- sevoflurane-induced caspase-3 activation, percentage of control (100%) (caspase-3; 5 mg/kg 2-APB i.p. 10 min before 3% sevoflurane for 6 h, neonatal naïve mice, P=0.001): 149%
- sevoflurane-induced caspase-3 activation, percentage of control (100%) (caspase-3; 10 mg/kg 2-APB i.p. 10 min before 3% sevoflurane for 6 h, neonatal naïve mice, P=0.005): 115%

Compound: C1CCC[C@H]2CCCN3CC[C@@H](CCCCCC[C@@H]4CCCN5CC[C@@H](CC1)O[C@@H]45)O[C@@H]23 [xestospongin C]
- effect on isoflurane-induced apoptosis [3]: inhibits isoflurane-induced apoptosis

Compound: FCOC(C(F)(F)F)C(F)(F)F [sevoflurane]
- caspase-3 activation, percentage of control (100%) (caspase-3; 2.1% sevoflurane for 6 h, neonatal AD transgenic mice, FIG. 2D, P=0.045): 178%
- caspase-3 activation, percentage of control (100%) (caspase-3; 2.1% sevoflurane for 6 h, neonatal naïve mice, FIG. 2B, P=0.002): 183%
- caspase-3 activation, percentage of control (100%) (caspase-3; 3% sevoflurane for 2 h, neonatal naïve mice, FIG. 3B, P=0.074 (did not increase)): 128%
- caspase-3 activation, fold of control (1-fold) (caspase-3; neonatal AD transgenic mice): 2.45 fold and 2.13 fold
- caspase-3 activation, fold of control (1-fold) (caspase-3; neonatal naïve mice, P=0.003): 1.48 fold
- caspase-3 activation, percentage of control (100%) (caspase-3; 3% sevoflurane for 6 h alone, neonatal naïve mice, 2-APB interaction study, FIG. 7B, P=0.002): 356%
- increase in caspase-3 cleavage (activation), ratio of cleaved caspase-3 fragment to FL-caspase-3, compared with control (caspase-3; 3% sevoflurane plus 60% oxygen for 6 h, 6-day-old neonatal naïve mice, FIG. 1B, P=0.009): 242%
- decrease in the ratio of APP-C83 to APP-FL compared with control [4]: 45%
- decrease in the ratio of APP-C99 to APP-FL compared with control [4]: 33%
- death of the mice ([5]; 2.1% sevoflurane): did not cause the death of the mice
- mortality rate of the mice ([5]; 3% sevoflurane plus 60% oxygen for 6 h): 10-15%
- TUNEL-positive cells (apoptosis), fold of control (1-fold) ([6]; neonatal AD transgenic mice): 2.13 fold and 2.45 fold
- TUNEL-positive cells (apoptosis), fold of control (1-fold) ([6]; neonatal naïve mice, P=0.001): 2.08 fold
